Measured values reported in ChEMBL document CHEMBL1681671, “Substrate-controlled chemoselective synthesis and potent cytotoxic activity of novel 5,6,7-triarylpyrido[2,3-d]pyrimidin-4-one derivatives” (Bioorg Med Chem Lett, 2011).
≈ marks a conversion by molar mass, not a printed value.

Tests used:
[1] = Cytotoxicity against human SW1116 cells assessed as cell proliferation inhibition rate at 0.1 ug/ml after 24 hrs by MTT assay; format: functional; settings: SW 1116, 24 h
[2] = Cytotoxicity against human SW1116 cells assessed as cell proliferation inhibition rate at 1 ug/ml after 24 hrs by MTT assay; format: functional; settings: SW 1116, 24 h
[3] = test system: SGC-7901; assay: Cytotoxicity against human SGC7901 cells assessed as cell mortality after 20 hrs by MTT assay; format: functional, cell-based; settings: SGC-7901, 20 h
[4] = Cytotoxicity against human SW1116 cells assessed as cell proliferation inhibition rate at 10 ug/ml after 24 hrs by MTT assay; format: functional; settings: SW 1116, 24 h

| SMILES | inhibition at 0.1 µg/mL [1] [%] | inhibition at 1 µg/mL [2] [%] | IC50 [3] [µg/mL] | inhibition at 10 µg/mL [4] [%] |
| --- | --- | --- | --- | --- |
| Nc1nc2c(c(=O)[nH]1)C(c1ccc(F)cc1)C(c1ccccc1)=C(c1ccccc1)N2 (stereo unspecified) | 31.6 | 17.6 | 13 (≈ 31.8 µM) | 50.3 |
| Nc1nc2c(c(=O)[nH]1)C(c1ccc(Br)cc1)C(c1ccccc1)=C(c1ccccc1)N2 (stereo unspecified) | 19.8 | 19.3 | 0.074 (≈ 0.157 µM) | 12 |
| Nc1nc2c(c(=O)[nH]1)C(c1ccc(Cl)cc1)C(c1ccccc1)=C(c1ccccc1)N2 (stereo unspecified) | 14.9 | 25.1 | 0.104 (≈ 0.244 µM) | 25.5 |
| COc1ccc(C2C(c3ccccc3)=C(c3ccccc3)Nc3nc(N)[nH]c(=O)c32)cc1 (stereo unspecified) | 43 | 29.1 | 0.341 (≈ 0.807 µM) | 42.8 |
| CN(C)c1ccc(C2C(c3ccccc3)=C(c3ccccc3)Nc3nc(N)[nH]c(=O)c32)cc1 (stereo unspecified) | 20.5 | 27.9 | 0.79 (≈ 1.81 µM) | 14 |
| Nc1nc2c(c(=O)[nH]1)C(c1ccc3c(c1)OCO3)C(c1ccccc1)=C(c1ccccc1)N2 (stereo unspecified) | 15.1 | 34.6 | 0.09 (≈ 0.206 µM) | 20.6 |
| Nc1nc2c(c(=O)[nH]1)C(c1cccs1)C(c1ccccc1)=C(c1ccccc1)N2 (stereo unspecified) | 22.4 | 37.2 | 0.108 (≈ 0.271 µM) | 48.3 |
| COc1ccccc1[C@@H]1c2c(nc(N)[nH]c2=O)N=C(c2ccccc2)[C@H]1c1ccccc1 (racemic) | 22.4 | 6.47 | 0.359 (≈ 0.85 µM) | 31.6 |
| COc1ccc([C@@H]2c3c(nc(N)[nH]c3=O)N=C(c3ccccc3)[C@H]2c2ccccc2)cc1OC (racemic) | 2.24 | 13.8 | 0.606 (≈ 1.34 µM) | 23.9 |
| COc1cc([C@@H]2c3c(nc(N)[nH]c3=O)N=C(c3ccccc3)[C@H]2c2ccccc2)cc(OC)c1OC (racemic) | 21.8 | 16.7 | 2.98 (≈ 6.17 µM) | 36.9 |
| Nc1nc2c(c(=O)[nH]1)[C@@H](c1ccccc1Cl)[C@H](c1ccccc1)C(c1ccccc1)=N2 (racemic) | 31.8 | 27.3 | 1.56 (≈ 3.67 µM) | 38.7 |
| COc1cccc2c1C(=O)c1c(O)c3c(c(O)c1C2=O)C[C@@](O)(C(=O)CO)C[C@@H]3O[C@H]1C[C@H](N)[C@H](O)[C@H](C)O1.Cl [DOXORUBICIN HYDROCHLORIDE] | – | – | 0.078 | 28.5 |
